According to patent publication US20250059198A1, “BRM DEGRADING COMPOUNDS AND ASSOCIATED METHODS OF USE” (Arvinas Operations, Inc., priority 2021, published 2025):

Molecular target: T1, BRM (Homo sapiens, UniProt P51531)
T1 construct: Western Blot Screen of BRM Degradation in SW1573 Cells; endogenous in cells; host or cells: SW1573 cells
Test: BRM degradation (Dmax and DC50) in SW1573 cells, Western blot screen / In-Cell Western screen
Format: cell-based
Conditions: overnight (18-20 hours) treatment; for Dmax: read-out: Dmax (%)** (% degraded)
Method in brief: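 Dmax and DC50 were derived from BRM levels normalised to an alpha-tubulin control, measured by chemiluminescent Western blotting of lysates or by PFA-fixed In-Cell Western on LI-COR Odyssey. SW1573 cells received compound overnight (18–20 h, 0.1% DMSO final).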

T1 sequence (P51531 whole entry): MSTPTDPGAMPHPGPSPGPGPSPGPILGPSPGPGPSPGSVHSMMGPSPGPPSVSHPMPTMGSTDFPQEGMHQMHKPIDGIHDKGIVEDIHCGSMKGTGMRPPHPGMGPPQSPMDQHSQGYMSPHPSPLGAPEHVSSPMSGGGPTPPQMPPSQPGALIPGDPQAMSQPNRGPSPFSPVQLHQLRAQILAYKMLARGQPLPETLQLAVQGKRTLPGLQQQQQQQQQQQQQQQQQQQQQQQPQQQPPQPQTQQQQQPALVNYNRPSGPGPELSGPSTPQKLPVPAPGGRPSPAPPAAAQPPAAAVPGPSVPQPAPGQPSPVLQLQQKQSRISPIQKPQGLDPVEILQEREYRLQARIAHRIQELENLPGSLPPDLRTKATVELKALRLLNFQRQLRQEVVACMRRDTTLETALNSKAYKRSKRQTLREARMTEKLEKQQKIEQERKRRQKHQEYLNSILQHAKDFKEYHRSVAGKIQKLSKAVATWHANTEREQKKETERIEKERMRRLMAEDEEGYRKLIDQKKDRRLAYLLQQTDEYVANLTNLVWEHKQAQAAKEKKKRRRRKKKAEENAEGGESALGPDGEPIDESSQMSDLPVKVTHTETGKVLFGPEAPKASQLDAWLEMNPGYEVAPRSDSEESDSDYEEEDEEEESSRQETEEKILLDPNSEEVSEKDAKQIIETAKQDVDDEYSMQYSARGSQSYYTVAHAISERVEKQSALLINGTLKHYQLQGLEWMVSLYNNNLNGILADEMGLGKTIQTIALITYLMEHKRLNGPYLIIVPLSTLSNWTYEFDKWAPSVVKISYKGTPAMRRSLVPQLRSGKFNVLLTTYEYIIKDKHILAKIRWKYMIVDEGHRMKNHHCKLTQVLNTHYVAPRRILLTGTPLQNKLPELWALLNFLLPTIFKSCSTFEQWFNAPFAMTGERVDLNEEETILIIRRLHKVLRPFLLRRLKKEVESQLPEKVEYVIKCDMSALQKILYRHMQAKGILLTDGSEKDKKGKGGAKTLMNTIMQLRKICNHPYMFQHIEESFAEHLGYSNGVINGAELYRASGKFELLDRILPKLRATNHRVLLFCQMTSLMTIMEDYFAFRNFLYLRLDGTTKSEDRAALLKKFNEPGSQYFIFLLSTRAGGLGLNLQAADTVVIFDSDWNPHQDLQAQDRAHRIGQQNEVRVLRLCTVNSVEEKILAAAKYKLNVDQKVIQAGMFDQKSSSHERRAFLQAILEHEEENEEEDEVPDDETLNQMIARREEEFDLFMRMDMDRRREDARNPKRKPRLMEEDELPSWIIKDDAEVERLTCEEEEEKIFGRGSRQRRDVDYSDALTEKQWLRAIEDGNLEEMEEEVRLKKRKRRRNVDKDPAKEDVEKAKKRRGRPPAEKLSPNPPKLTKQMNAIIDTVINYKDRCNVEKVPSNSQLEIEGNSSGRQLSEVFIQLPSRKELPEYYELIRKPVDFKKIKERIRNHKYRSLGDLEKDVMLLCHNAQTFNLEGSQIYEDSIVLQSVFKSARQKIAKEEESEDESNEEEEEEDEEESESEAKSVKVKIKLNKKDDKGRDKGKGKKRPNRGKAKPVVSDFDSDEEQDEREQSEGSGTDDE

SMILES | DC50 | Dmax
Cc1ncsc1-c1ccc([C@H](C)NC(=O)[C@@H]2C[C@@H](O)CN2C(=O)[C@@H](c2cc(N3CCC(CN4CCC5(CC4)CC(N4CCC[C@@](O)(CN6C7CCC6CN(c6cc(-c8ccccc8O)nnc6N)C7)C4)C5)CC3)no2)C(C)C)cc1 [Compound 71, (2S,4R)-1-[(2R)-2-{3-[4-({2-[(3S)-3-({3-[3-amino-6-(2-hydroxyphenyl)pyridazin-4-yl]-3,8-diazabicyclo[3.2.1]octan-8-yl}methyl)-3-hydroxypiperidin-1-yl]-7-azaspiro[3.5]nonan-7-yl}methyl)piperidin-1-yl]-1,2-oxazol-5-yl}-3-methylbutanoyl]-4-hydroxy-N-[(1S)-1-[4-(4-methyl-1,3-thiazol-5-yl)phenyl]ethyl]pyrrolidine-2-carboxamide] | < 2.5 nM | > 75%
Cc1ncsc1-c1ccc([C@H](C)NC(=O)[C@@H]2C[C@@H](O)CN2C(=O)[C@@H](c2cc(N3CCC(OC(=O)N4CCC(Oc5cc(N6C7CCC6CN(c6cc(-c8ccccc8O)nnc6N)C7)ccn5)CC4)CC3)no2)C(C)C)cc1 [Compound 128, 1-(5-((R)-1-((2S,4R)-4-hydroxy-2-(((S)-1-(4-(4-methylthiazol-5-yl)phenyl)ethyl)carbamoyl)pyrrolidin-1-yl)-3-methyl-1-oxobutan-2-yl)isoxazol-3-yl)piperidin-4-yl 4-((4-(3-(3-amino-6-(2-hydroxyphenyl)pyridazin-4-yl)-3,8-diazabicyclo[3.2.1]octan-8-yl)pyridin-2-yl)oxy)piperidine-1-carboxylate] | < 2.5 nM | > 75%
Cc1ncsc1-c1ccc([C@H](C)NC(=O)[C@@H]2C[C@@H](O)CN2C(=O)[C@H](c2cc(N3CCN(C(=O)[C@H]4C[C@H](Oc5cc(N6C7CCC6CN(c6cc(-c8ccccc8O)nnc6N)C7)ccn5)C4)CC3)no2)C(C)C)cc1 [Compound 118, (2S,4R)-4-hydroxy-N-[(1S)-1-[4-(4-methyl-1,3-thiazol-5-yl)phenyl]ethyl]-1-[(2S)-3-methyl-2-(3-{4-[(1r,3r)-3-[(4-{3-[3-amino-6-(2-hydroxyphenyl)pyridazin-4-yl]-3,8-diazabicyclo[3.2.1]octan-8-yl}pyridin-2-yl)oxy]cyclobutanecarbonyl]piperazin-1-yl}-1,2-oxazol-5-yl)butanoyl]pyrrolidine-2-carboxamide] | < 2.5 nM | > 75%
Cc1ncsc1-c1ccc([C@H](C)NC(=O)[C@@H]2C[C@@H](O)CN2C(=O)[C@@H](c2cc(OCCN3CCN(CCOc4cc(N5C6CCC5CN(c5cc(-c7ncccc7O)nnc5N)C6)ccn4)[C@H](C)C3)no2)C(C)C)cc1 [Compound 149, (2S,4R)-1-[(2R)-2-(3-{2-[(3R)-4-{2-[(4-{3-[3-amino-6-(3-hydroxypyridin-2-yl)pyridazin-4-yl]-3,8-diazabicyclo[3.2.1]octan-8-yl}pyridin-2-yl)oxy]ethyl}-3-methylpiperazin-1-yl]ethoxy}-1,2-oxazol-5-yl)-3-methylbutanoyl]-4-hydroxy-N-[(1S)-1-[4-(4-methyl-1,3-thiazol-5-yl)phenyl]ethyl]pyrrolidine-2-carboxamide] | ≥ 30 nM | –
Cc1ncsc1-c1ccc([C@H](C)NC(=O)[C@@H]2C[C@@H](O)CN2C(=O)[C@H](c2cc(N3CCC(O[C@H]4CC[C@H](Oc5cc(N6C7CCC6CN(c6cc(-c8ccccc8O)nnc6N)C7)ccn5)CC4)CC3)no2)C(C)C)cc1 [Compound 135, (2S,4R)-4-hydroxy-N-[(1S)-1-[4-(4-methyl-1,3-thiazol-5-yl)phenyl]ethyl]-1-[(2S)-3-methyl-2-[3-(4-{[(1r,4r)-4-[(4-{3-[3-amino-6-(2-hydroxyphenyl)pyridazin-4-yl]-3,8-diazabicyclo[3.2.1]octan-8-yl}pyridin-2-yl)oxy]cyclohexyl]oxy}piperidin-1-yl)-1,2-oxazol-5-yl]butanoyl]pyrrolidine-2-carboxamide] | ≥ 30 nM | –
CC(C)[C@@H](C(=O)N1C[C@H](O)C[C@H]1C(=O)N[C@@H](C)c1ccc(C#N)cc1)c1cc(N2CCC(CN3CCC(O[C@H]4C[C@H](Oc5cc(N6C7CCCC6CN(c6cc(-c8ccccc8O)nnc6N)C7)ccn5)C4)CC3)CC2)no1 [Compound 16, (2S,4R)-N-[(1S)-1-(4-cyanophenyl)ethyl]-4-hydroxy-1-[(2R)-3-methyl-2-{3-[4-({4-[(1r,3r)-3-[(4-{3-[3-amino-6-(2-hydroxyphenyl)pyridazin-4-yl]-3,9-diazabicyclo[3.3.1]nonan-9-yl}pyridin-2-yl)oxy]cyclobutoxy]piperidin-1-yl}methyl)piperidin-1-yl]-1,2-oxazol-5-yl}butanoyl]pyrrolidine-2-carboxamide] | < 2.5 nM | > 75%
CC(C)[C@H](C(=O)N1C[C@H](O)C[C@H]1C(=O)N[C@@H](C)c1ccc(-c2scnc2C#CCOCCOCCOc2cc(N3C4CCC3CN(c3cc(-c5ccccc5O)nnc3N)C4)ccn2)cc1)N1Cc2ccccc2C1=O [Compound 86] | 2.5 to 10 nM | > 75%
Cc1ncsc1-c1ccc([C@H](C)NC(=O)[C@@H]2C[C@@H](O)CN2C(=O)[C@H](c2cc(N3CCC(OC(=O)N4CCC(O[C@H]5C[C@H](Oc6cc(N7C8CCC7CN(c7cc(-c9ccccc9O)nnc7N)C8)ccn6)C5)CC4)CC3)no2)C(C)C)cc1 [Compound 116, 1-{5-[(2S)-1-[(2S,4R)-4-hydroxy-2-([(1S)-1-[4-(4-methyl-1,3-thiazol-5-yl)phenyl]ethyl]carbamoyl}pyrrolidin-1-yl]-3-methyl-1-oxobutan-2-yl]-1,2-oxazol-3-yl}piperidin-4-yl 4-[(1r,3r)-3-[(4-{3-[3-amino-6-(2-hydroxyphenyl)pyridazin-4-yl]-3,8-diazabicyclo[3.2.1]octan-8-yl}pyridin-2-yl)oxy]cyclobutoxy]piperidine-1-carboxylate] | < 2.5 nM | > 75%
CC(C)[C@@H](C(=O)N1C[C@H](O)C[C@H]1C(=O)N[C@@H](C)c1ccc(C#N)cc1)c1cc(N2CCC(CN3CCC(O[C@H]4C[C@H](Oc5cc(N6C7CC6CN(c6cc(-c8ccccc8O)nnc6N)C7)ccn5)C4)CC3)CC2)no1 [Compound 17, (2S,4R)-N-[(1S)-1-(4-cyanophenyl)ethyl]-4-hydroxy-1-[(2R)-3-methyl-2-{3-[4-({4-[(1r,3r)-3-[(4-{3-[3-amino-6-(2-hydroxyphenyl)pyridazin-4-yl]-3,6-diazabicyclo[3.1.1]heptan-6-yl}pyridin-2-yl)oxy]cyclobutoxy]piperidin-1-yl}methyl)piperidin-1-yl]-1,2-oxazol-5-yl}butanoyl]pyrrolidine-2-carboxamide] | < 2.5 nM | > 75%
Cc1ncsc1-c1ccc([C@H](C)NC(=O)[C@@H]2C[C@@H](O)CN2C(=O)[C@@H](c2cc(N3CCC(CN4CCC5(CC4)CC(N4CCO[C@H](C(C)n6cc(-c7cc(-c8ccccc8O)nnc7N)cn6)C4)C5)CC3)no2)C(C)C)cc1 (stereo partly drawn) [Compound 88, (2S,4R)-1-[(2R)-2-{3-[4-({2-[(2S)-2-(1-(4-[3-amino-6-(2-hydroxyphenyl)pyridazin-4-yl]-1H-pyrazol-1-yl}ethyl)morpholin-4-yl]-7-azaspiro[3.5]nonan-7-yl}methyl)piperidin-1-yl]-1,2-oxazol-5-yl}-3-methylbutanoyl]-4-hydroxy-N-[(1S)-1-[4-(4-methyl-1,3-thiazol-5-yl)phenyl]ethyl]pyrrolidine-2-carboxamide] | < 2.5 nM | > 75%
CC(C)[C@@H](C(=O)N1C[C@H](O)C[C@H]1C(=O)N[C@@H](C)c1ccc(-c2ccnn2C)cc1)c1cc(N2CCC(CN3CCC(O[C@H]4C[C@H](OC(=O)N5CCN(c6cc(-c7ccccc7O)nnc6N)CC5)C4)CC3)CC2)no1 [Compound 115, (1r,3r)-3-({1-[(1-{5-[(2R)-1-[(2S,4R)-4-hydroxy-2-{[(1S)-1-[4-(1-methyl-1H-pyrazol-5-yl)phenyl]ethyl]carbamoyl}pyrrolidin-1-yl]-3-methyl-1-oxobutan-2-yl]-1,2-oxazol-3-yl}piperidin-4-yl)methyl]piperidin-4-yl}oxy)cyclobutyl 4-[3-amino-6-(2-hydroxyphenyl)pyridazin-4-yl]piperazine-1-carboxylate] | ≥ 30 nM | –
CC(C)[C@@H](C(=O)N1C[C@H](O)C[C@H]1C(=O)N[C@@H](C)c1ccc(-c2ccnn2C)cc1)c1cc(N2CCC(CN3CCC(O[C@H]4C[C@H](Oc5cc(/C=C/c6cc(-c7ccccc7O)nnc6N)ccn5)C4)CC3)CC2)no1 [Compound 30, (2S,4R)-4-hydroxy-N-[(1S)-1-[4-(1-methyl-1H-pyrazol-5-yl)phenyl]ethyl]-1-[(2R)-3-methyl-2-{3-[4-({4-[(1r,3r)-3-({4-[(1E)-2-[3-amino-6-(2-hydroxyphenyl)pyridazin-4-yl]ethenyl]pyridin-2-yl}oxy)cyclobutoxy]piperidin-1-yl}methyl)piperidin-1-yl]-1,2-oxazol-5-yl}butanoyl]pyrrolidine-2-carboxamide] | < 2.5 nM | > 75%
Cc1ncsc1-c1ccc([C@H](C)NC(=O)[C@@H]2C[C@@H](O)CN2C(=O)[C@@H](c2cc(OCCOC(=O)N3CCC(O[C@H]4C[C@H](Oc5cc(N6C7CCC6CN(c6cc(-c8ccccc8O)nnc6N)C7)ccn5)C4)CC3)no2)C(C)C)cc1 [Compound 127, 2-({5-[(2R)-1-[(2S,4R)-4-hydroxy-2-{[(1S)-1-[4-(4-methyl-1,3-thiazol-5-yl)phenyl]ethyl]carbamoyl}pyrrolidin-1-yl]-3-methyl-1-oxobutan-2-yl]-1,2-oxazol-3-yl}oxy)ethyl 4-[(1r,3r)-3-[(4-{3-[3-amino-6-(2-hydroxyphenyl)pyridazin-4-yl]-3,8-diazabicyclo[3.2.1]octan-8-yl}pyridin-2-yl)oxy]cyclobutoxy]piperidine-1-carboxylate] | ≥ 30 nM | –
